Data published in patent US6916915B1, “Stressor regulated genes” (Duke University, priority 1998, dated 2005).

System: C. elegans
Experiment: Reverse-Northern dot-blot analysis of steady-state mRNA levels after cadmium exposure
Type: in vivo, Caenorhabditis elegans
Details: for Fold-change in mRNA levels following cadmium exposure, DDRT1: clone DDRT1; for Fold-change in mRNA levels following cadmium exposure, DDRT2: clone DDRT2; for Fold-change in mRNA levels following cadmium exposure, DDRT3: clone DDRT3; for Fold-change in mRNA levels following cadmium exposure, DDRT4: clone DDRT4; for Fold-change in mRNA levels following cadmium exposure, DDRT5: clone DDRT5; for Fold-change in mRNA levels following cadmium exposure, DDRT6: clone DDRT6; for Fold-change in mRNA levels following cadmium exposure, DDRT7: clone DDRT7; for Fold-change in mRNA levels following cadmium exposure, DDRT9: clone DDRT9; for Fold-change in mRNA levels following cadmium exposure, DDRT10: clone DDRT10; for Fold-change in mRNA levels following cadmium exposure, DDRT12: clone DDRT12; for Fold-change in mRNA levels following cadmium exposure, DDRT15: clone DDRT15; for Fold-change in mRNA levels following cadmium exposure, DDRT16: clone DDRT16; for Fold-change in mRNA levels following cadmium exposure, DDRT17: clone DDRT17; for Fold-change in mRNA levels following cadmium exposure, DDRT18: clone DDRT18; for Fold-change in mRNA levels following cadmium exposure, DDRT19: clone DDRT19; for Fold-change in mRNA levels following cadmium exposure, DDRT20: clone DDRT20; for Fold-change in mRNA levels following cadmium exposure, DDRT21D: clone DDRT21D; for Fold-change in mRNA levels following cadmium exposure, DDRT21U: clone DDRT21U; for Fold-change in mRNA levels following cadmium exposure, DDRT22: clone DDRT22
Description: Growth and isolation of C. elegans—The N2 strain of C. elegans was grown in liquid S medium (0.1M NaCl, 50 mM potassium phosphate, pH 6.0, 5 μg/ml cholesterol, 10 mM potassium citrate, 3 mM CaCl2, 3 mM MgCl2, 50 μM EDTA, 25 μM FeSO4, 10 μM MnCl2, 10 μM ZnSO4 and 1 μM CuSO4) using E. coli OP50 as a food source (Brenner, S. (1974) Genetics 77, 71-94). In experiments where nematodes were exposed to cadmium, the medium was supplemented with 100 μM CdCl2 (Freedman, J. H. et al. (1993) J. Biol. Chem. 268, 2554-2564). C. elegans were grown in the presence of metal for 8 h or 24 h at ˜20° C. Nematodes were then collected following centrifugation at 800×g for 5 min. Pellets were suspended in 5 mM NaCl containing 35% sucrose (final concentration) and viable nematodes were collected from the top of the solution following centrifugation at 1000×g for 5 min at 4° C. Nematodes were then washed three times by suspension in M9 buffer (22 mM KH2PO4, 42 mM Na2HPO4, 85 mM NaCl, 1 mM MgSO4) followed by sedimentation at 800×g. Washed nematode pellets were finally suspended in a small volume of M9 buffer, rapidly frozen in liquid nitrogen and stored at −80° C.
RNA isolation—Total RNA was isolated from mix-stage populations of C. elegans exposed to 100 μM CdCl2 for 8 h and 24 h and control, non-exposed nematodes. Frozen worms were first ground into a fine powder using a liquid nitrogen-cooled mortar and pestle. Powdered C. elegans (200 mg) were then homogenized in 2 ml of TRIzol (GIBCO/BRL). RNA was then collected from the aqueous phase following the addition of chloroform, precipitated by adding isopropyl alcohol and then air-dried. The dried RNA pellet was then dissolved in diethyl pyrocarbonate (DEPC)-treated water. For some experiments, poly(A^+) RNA was subsequently isolated using the Poly(A) Tract System following manufacturer's instructions (Promega).
Reverse-Northern dot-blot analysis—Changes in the steady-state levels of differentially expressed mRNAs in C. elegans following cadmium-exposure were also determined by reverse-Northern dot-blot analysis by the modified procedure of Zhang et al. (Cummins, C. et al. (1988) Mol. Cell. Biol 8, 5334-5349). Briefly, differentially expressed cDNAs that were previously cloned into pGEM-T were amplified using primers that anneal to the T7 and SP6 RNA polymerase binding sites, which flank the cDNA insert. cDNAs were amplified and subsequently purified using a PCR-spin column (QIAGEN). Approximately 100 ng of each amplified cDNA were denatured by mixing with 0.1N NaOH (final concentration) and incubating at 100° C. for 5 min. The solution was neutralized following the addition of 3×SSC (final concentration) and then the volume adjusted to 700 μl with dH2O. 200-μl of each sample was applied to one of three Nytran membranes in a Bio-Dot microfiltration apparatus (BioRad). Membranes were then baked for 30 min at 80° C. under vacuum. As positive and loading controls 100 ng of mtl-1 cDNA and myosin light chain DNA were also applied to each membrane, respectively.
Three pools of single-stranded ^32P-labeled cDNA probes were prepared from poly(A^+) RNA isolated from control, 8 h and 24 h cadmium-treated nematodes. cDNAs were generated from a mixture of mRNAs in a 25 μl reverse transcriptase reactions which contained 2 μg poly(A^+) RNA, 1 μg oligo (dT)18 primer, reverse transcriptase buffer, 800 μM DATP, dGTP and dTTP, 4.5 μM dCTP, 100 μCi [α-^32P]dCTP (3000 Ci/mmol), 20 units RNase inhibitor and 200 units Moloney murine leukemia virus reverse transcriptase. The reaction mixture was incubated at 37° C. for 1 h, then at 95° C. for 5 min to terminate the reaction. Unincorporated nucleotides were separated from the labeled cDNAs by using a G-25 spin column (Boehringer Mannheim). Equal amounts (5×10^6 cpm/ml) of each radioactive cDNA mixture were heat-denatured and then hybridized separately to one of the three membranes at 42° C. for 16 h in hybridization buffer. […]

[1] = cadmium exposure, time not stated
[2] = 8 hours, 100 μM CdCl2, relative to non-exposed, normalized to myosin light chain mRNA
[3] = 24 hours, 100 μM CdCl2, relative to non-exposed, normalized to myosin light chain mRNA

## [Cl][Cd][Cl] [cadmium, CdCl2]
24-h exposure
  increase in level of expression, forty-six of the clones: up to 6 fold
After cadmium treatment, loading control on dot blot
  level of expression of myosin light-chain mRNA: remained constant
After cadmium treatment, positive control on dot blot, time not stated
  induction of mtl-1 mRNA: ~5 fold
[1]
  increase in the level of mRNA DDRT30 (collagen col-36): 3 fold
  increase in the level of mRNA DDRT33D (predicted cuticle collagen): 3 fold
[2]
  Fold-change in mRNA levels following cadmium exposure, DDRT1: 2.2 fold
  Fold-change in mRNA levels following cadmium exposure, DDRT2: 3.1 fold
  Fold-change in mRNA levels following cadmium exposure, DDRT3: 2.0 fold
  Fold-change in mRNA levels following cadmium exposure, DDRT4: 2.5 fold
  Fold-change in mRNA levels following cadmium exposure, DDRT5: 3.2 fold
  Fold-change in mRNA levels following cadmium exposure, DDRT6: 4.7 fold
  Fold-change in mRNA levels following cadmium exposure, DDRT7: 3.6 fold
  Fold-change in mRNA levels following cadmium exposure, DDRT9: 3.5 fold
  Fold-change in mRNA levels following cadmium exposure, DDRT10: 2.7 fold
  Fold-change in mRNA levels following cadmium exposure, DDRT12: 3.0 fold
  Fold-change in mRNA levels following cadmium exposure, DDRT15: 2.8 fold
  Fold-change in mRNA levels following cadmium exposure, DDRT16: 4.3 fold
  Fold-change in mRNA levels following cadmium exposure, DDRT17: 3.7 fold
  Fold-change in mRNA levels following cadmium exposure, DDRT18: 2.2 fold
  Fold-change in mRNA levels following cadmium exposure, DDRT19: 2.7 fold
  Fold-change in mRNA levels following cadmium exposure, DDRT20: 2.6 fold
  Fold-change in mRNA levels following cadmium exposure, DDRT21D: 2.2 fold
  Fold-change in mRNA levels following cadmium exposure, DDRT21U: 2.2 fold
  Fold-change in mRNA levels following cadmium exposure, DDRT22: 2.5 fold
[3]
  Fold-change in mRNA levels following cadmium exposure, DDRT1: 3.2 fold
  Fold-change in mRNA levels following cadmium exposure, DDRT2: 3.9 fold
  Fold-change in mRNA levels following cadmium exposure, DDRT3: 2.4 fold
  Fold-change in mRNA levels following cadmium exposure, DDRT4: 2.8 fold
  Fold-change in mRNA levels following cadmium exposure, DDRT5: 3.9 fold
  Fold-change in mRNA levels following cadmium exposure, DDRT6: 5.0 fold
  Fold-change in mRNA levels following cadmium exposure, DDRT7: 4.0 fold
  Fold-change in mRNA levels following cadmium exposure, DDRT9: 2.8 fold
  Fold-change in mRNA levels following cadmium exposure, DDRT10: 2.5 fold
  Fold-change in mRNA levels following cadmium exposure, DDRT12: 3.2 fold
  Fold-change in mRNA levels following cadmium exposure, DDRT15: 3.1 fold
  Fold-change in mRNA levels following cadmium exposure, DDRT16: 4.9 fold
  Fold-change in mRNA levels following cadmium exposure, DDRT17: 5.7 fold
  Fold-change in mRNA levels following cadmium exposure, DDRT18: 2.9 fold
  Fold-change in mRNA levels following cadmium exposure, DDRT19: 3.9 fold
  Fold-change in mRNA levels following cadmium exposure, DDRT20: 2.8 fold
  Fold-change in mRNA levels following cadmium exposure, DDRT21D: 4.2 fold
  Fold-change in mRNA levels following cadmium exposure, DDRT21U: 2.6 fold
  Fold-change in mRNA levels following cadmium exposure, DDRT22: 3.3 fold
Clone DDRT23, 8 hours, 100 μM CdCl2, relative to non-exposed, normalized to myosin light chain mRNA
  Fold-change in mRNA levels following cadmium exposure, DDRT23: 3.3 fold
